From patent US10975080B2, “Compounds and compositions for inhibiting the activity of SHP2” (NOVARTIS AG, priority 2015, dated 2021)

Target: SHP2 (Homo sapiens (Human), UniProt Q06124)
Assay: SHP2 Allosteric Inhibition Assay
Format: biochemical
Settings: 0.5 nM SHP2 with 0.5 μM peptide IRS1_pY1172(dPEG8)pY1222; surrogate substrate DiFMUP; 25° C.; read-out: IC50
Description: SHP2 Allosteric Inhibition Assay
SHP2 is allosterically activated through binding of bis-tyrosyl-phosphorylated peptides to its Src Homology 2 (SH2) domains. The latter activation step leads to the release of the auto-inhibitory interface of SHP2, which in turn renders the SHP2 protein tyrosine phosphatase (PTP) active and available for substrate recognition and reaction catalysis. The catalytic activity of SHP2 was monitored using the surrogate substrate DiFMUP in a prompt fluorescence assay format.
After 30-60 minutes incubation at 25° C., the surrogate substrate DiFMUP (Invitrogen, cat #D6567) was added to the reaction and incubated at 25° C. for 30 minutes. […] The inhibitor dose response curves were analyzed using normalized IC50 regression curve fitting with control based normalization.

Sequence of SHP2 (Q06124 whole entry): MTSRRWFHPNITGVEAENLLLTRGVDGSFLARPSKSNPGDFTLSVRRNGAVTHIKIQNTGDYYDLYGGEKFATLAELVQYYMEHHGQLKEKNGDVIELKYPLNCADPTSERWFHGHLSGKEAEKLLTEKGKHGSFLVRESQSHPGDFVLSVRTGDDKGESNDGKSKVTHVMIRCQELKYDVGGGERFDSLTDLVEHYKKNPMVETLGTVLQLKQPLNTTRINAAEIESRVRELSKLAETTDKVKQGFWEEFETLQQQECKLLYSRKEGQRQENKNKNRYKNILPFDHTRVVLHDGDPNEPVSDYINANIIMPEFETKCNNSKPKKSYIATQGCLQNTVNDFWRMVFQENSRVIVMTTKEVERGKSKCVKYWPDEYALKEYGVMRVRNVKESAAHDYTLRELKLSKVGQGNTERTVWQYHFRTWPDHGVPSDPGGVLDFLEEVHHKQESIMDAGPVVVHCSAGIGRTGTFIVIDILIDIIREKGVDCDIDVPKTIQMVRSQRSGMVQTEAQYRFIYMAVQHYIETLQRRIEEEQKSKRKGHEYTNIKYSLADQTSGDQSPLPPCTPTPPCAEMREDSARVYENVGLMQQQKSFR

Cn1c(N2CCC(C)(CN)CC2)nc2[nH]cc(-c3cccc(Cl)c3Cl)c2c1=O [Example 5, 2-(4-(aminomethyl)-4-methylpiperidin-1-yl)-5-(2,3-dichlorophenyl)-3-methyl-3H-pyrrolo[2,3-d]pyrimidin-4(7H)-one] and CC1(CN)CCN(c2cc3[nH]cc(-c4cccc(Cl)c4Cl)c3c(=O)[nH]2)CC1 [Example 11, 6-(4-(aminomethyl)-4-methylpiperidin-1-yl)-3-(2,3-dichlorophenyl)-1,5-dihydro-4H-pyrrolo[3,2-c]pyridin-4-one] are within 1.5-fold of each other in IC50: 100 nM for the first, 86 nM for the second.

First: C[C@@H]1OCC2(CCN(c3nc4[nH]nc(-c5cc(N)nc(Cl)c5Cl)c4c(=O)n3C)CC2)[C@@H]1N [Example 6, 3-(6-amino-2,3-dichloropyridin-4-yl)-6-((3S,4S)-4-amino-3-methyl-2-oxa-8-azaspiro[4.5]decan-8-yl)-5-methyl-1,5-dihydro-4H-pyrazolo[3,4-d]pyrimidin-4-one]
Second: CC(C)Nc1nccc(-c2n[nH]c3nc(N4CCC5(CC4)CO[C@@H](C)[C@H]5N)n(C)c(=O)c23)c1Cl [Example 7, 6-((3S,4S)-4-amino-3-methyl-2-oxa-8-azaspiro[4.5]decan-8-yl)-3-(3-chloro-2-(isopropylamino)pyridin-4-yl)-5-methyl-1,5-dihydro-4H-pyrazolo[3,4-d]pyrimidin-4-one]
The IC50 of the first is 11-fold higher: 380 nM for the first, 34 nM for the second.

For C[C@@H]1OCC2(CCN(c3cnc4c(-c5cccc(Cl)c5Cl)c[nH]c4n3)CC2)[C@@H]1N [Example 12, (3S,4S)-8-(7-(2,3-dichlorophenyl)-5H-pyrrolo[2,3-b]pyrazin-3-yl)-3-methyl-2-oxa-8-azaspiro[4.5]decan-4-amine], the IC50 was 39 nM.

Same assay, conditions: 0.5 nM SHP2 with 0.5 μM peptide IRS1_pY1172(dPEG8)pY1222; surrogate substrate DiFMUP; 25° C.; read-out: SHP2 IC50

First: C[C@@H]1OCC2(CCN(c3nc4[nH]nc(-c5c(F)ccc(Cl)c5Cl)c4c(=O)n3C)CC2)[C@@H]1N [Example 27, 6-((3S,4S)-4-amino-3-methyl-2-oxa-8-azaspiro[4.5]decan-8-yl)-3-(2,3-dichloro-6-fluorophenyl)-5-methyl-1,5-dihydro-4H-pyrazolo[3,4-d]pyrimidin-4-one]
Second: C[C@@H]1OCC2(CCN(c3nc4[nH]nc(-c5ccccc5F)c4c(=O)n3C)CC2)[C@@H]1N [Example 63, 6-((3S,4S)-4-amino-3-methyl-2-oxa-8-azaspiro[4.5]decan-8-yl)-3-(2-fluorophenyl)-5-methyl-1,5-dihydro-4H-pyrazolo[3,4-d]pyrimidin-4-one]
The IC50 of the first is 20-fold higher: 450 nM for the first, 23 nM for the second. The second is the more potent here.

Compared with Cn1c(N2CCC(C)(CN)CC2)nc2[nH]nc(Sc3cccc(Cl)c3Cl)c2c1=O [Example 83, 6-(4-(aminomethyl)-4-methylpiperidin-1-yl)-3-((2,3-dichlorophenyl)thio)-5-methyl-1,5-dihydro-4H-pyrazolo[3,4-d]pyrimidin-4-one], C[C@@H]1OCC2(CCN(c3nc4[nH]nc(Sc5ccnc(N)c5Cl)c4c(=O)n3C)CC2)[C@@H]1N [Example 84, 3-((2-amino-3-chloropyridin-4-yl)thio)-6-((3S,4S)-4-amino-3-methyl-2-oxa-8-azaspiro[4.5]decan-8-yl)-5-methyl-1,5-dihydro-4H-pyrazolo[3,4-d]pyrimidin-4-one] is 3.4-fold higher in IC50: 8 nM for the first, 27 nM for the second.

Cn1c(N2CCC3(CC2)COC[C@H]3N)nc2[nH]nc(-c3ccnc(N)c3Cl)c2c1=O [Example 23, (S)-3-(2-amino-3-chloropyridin-4-yl)-6-(4-amino-2-oxa-8-azaspiro[4.5]decan-8-yl)-5-methyl-1,5-dihydro-4H-pyrazolo[3,4-d]pyrimidin-4-one] and Cn1c(N2CCC3(CC2)COC[C@H]3N)nc2[nH]nc(-c3ccnc(Cl)c3Cl)c2c1=O [Example 21, (S)-6-(4-amino-2-oxa-8-azaspiro[4.5]decan-8-yl)-3-(2,3-dichloropyridin-4-yl)-5-methyl-1,5-dihydro-4H-pyrazolo[3,4-d]pyrimidin-4-one] are within 1.5-fold of each other in IC50: 64 nM for the first, 54 nM for the second.

Cn1c(N2CCC3(CC2)C[C@H](F)C[C@H]3N)nc2[nH]nc(-c3ccnc(N)c3Cl)c2c1=O [Example 37, 3-(2-amino-3-chloropyridin-4-yl)-6-((1R,3S)-1-amino-3-fluoro-8-azaspiro[4.5]decan-8-yl)-5-methyl-1,5-dihydro-4H-pyrazolo[3,4-d]pyrimidin-4-one] and C[C@H]1C[C@@H](N)C2(CCN(c3nc4[nH]nc(-c5ccnc(N)c5Cl)c4c(=O)n3C)CC2)C1 [Example 76, 3-(2-amino-3-chloropyridin-4-yl)-6-((1R,3R)-1-amino-3-methyl-8-azaspiro[4.5]decan-8-yl)-5-methyl-1,5-dihydro-4H-pyrazolo[3,4-d]pyrimidin-4-one] are within 1.5-fold of each other in IC50: 27 nM for the first, 32 nM for the second.

Going from COc1ccc(-c2n[nH]c3nc(N4CCC5(CC4)CO[C@@H](C)[C@H]5N)n(C)c(=O)c23)cc1 [Example 42, 6-((3S,4S)-4-amino-3-methyl-2-oxa-8-azaspiro[4.5]decan-8-yl)-3-(4-methoxyphenyl)-5-methyl-1,5-dihydro-4H-pyrazolo[3,4-d]pyrimidin-4-one] to C[C@@H]1OCC2(CCN(c3nc4[nH]nc(-c5ccc(F)cc5)c4c(=O)n3C)CC2)[C@@H]1N [Example 57, 6-((3S,4S)-4-amino-3-methyl-2-oxa-8-azaspiro[4.5]decan-8-yl)-3-(4-fluorophenyl)-5-methyl-1,5-dihydro-4H-pyrazolo[3,4-d]pyrimidin-4-one], the IC50 falls from 20 nM to 11 nM (1.8-fold).

Going from COc1cccc(-c2n[nH]c3nc(N4CCC5(CC4)COC[C@H]5N)n(C)c(=O)c23)c1Cl [Example 68, (S)-6-(4-amino-2-oxa-8-azaspiro[4.5]decan-8-yl)-3-(2-chloro-3-methoxyphenyl)-5-methyl-1,5-dihydro-4H-pyrazolo[3,4-d]pyrimidin-4-one] to COc1ccccc1-c1n[nH]c2nc(N3CCC4(CC3)CO[C@@H](C)[C@H]4N)n(C)c(=O)c12 [Example 66, 6-((3S,4S)-4-amino-3-methyl-2-oxa-8-azaspiro[4.5]decan-8-yl)-3-(2-methoxyphenyl)-5-methyl-1,5-dihydro-4H-pyrazolo[3,4-d]pyrimidin-4-one], the IC50 rises from 25 nM to 91 nM (3.6-fold). The first is the more potent here.

CNc1nccc(-c2n[nH]c3nc(N4CCC5(CC4)C[C@@H](C)C[C@H]5N)n(C)c(=O)c23)c1Cl [Example 77, 6-((1R,3R)-1-amino-3-methyl-8-azaspiro[4.5]decan-8-yl)-3-(3-chloro-2-(methylamino)pyridin-4-yl)-5-methyl-1,5-dihydro-4H-pyrazolo[3,4-d]pyrimidin-4-one] and C[C@H]1C[C@@H](N)C2(CCN(c3nc4[nH]nc(-c5ccnc(N(C)C)c5Cl)c4c(=O)n3C)CC2)C1 [Example 73, 6-((1R,3R)-1-amino-3-methyl-8-azaspiro[4.5]decan-8-yl)-3-(3-chloro-2-(dimethylamino)pyridin-4-yl)-5-methyl-1,5-dihydro-4H-pyrazolo[3,4-d]pyrimidin-4-one] are within 1.5-fold of each other in IC50: 30 nM for the first, 28 nM for the second.

Going from C[C@@H]1OCC2(CCN(c3nc4[nH]nc(-c5ccnc(Cl)c5Br)c4c(=O)n3C)CC2)[C@@H]1N [Example 33, 6-((3S,4S)-4-amino-3-methyl-2-oxa-8-azaspiro[4.5]decan-8-yl)-3-(3-bromo-2-chloropyridin-4-yl)-5-methyl-1,5-dihydro-4H-pyrazolo[3,4-d]pyrimidin-4-one] to C[C@@H]1OCC2(CCN(c3nc4[nH]nc(-c5ccncc5)c4c(=O)n3C)CC2)[C@@H]1N [Example 70, 6-((3S,4S)-4-amino-3-methyl-2-oxa-8-azaspiro[4.5]decan-8-yl)-5-methyl-3-(pyridin-4-yl)-1,5-dihydro-4H-pyrazolo[3,4-d]pyrimidin-4-one], the IC50 falls from 13 nM to 8 nM (1.6-fold). The second is the more potent here.
